Measured values published in patent publication US8283353B2, “Fused ring compound and use thereof” (Takeda Pharmaceutical Company Limited, priority 2009, dated 2012).

Columns and labels:
[1] = biological target: T1, human AT1 receptor (Homo sapiens, UniProt P30556); assay: AT1 receptor antagonistic activity: [125I]-angiotensin II binding assay on human AT1 receptor-expressing CHO-K1 cellular membrane fraction; conditions: 22.5 pM [125I]-angiotensin II, 1 hr room temperature
T1 construct: expressed in transfected cells; membrane fraction
T1 sequence (P30556 1-359): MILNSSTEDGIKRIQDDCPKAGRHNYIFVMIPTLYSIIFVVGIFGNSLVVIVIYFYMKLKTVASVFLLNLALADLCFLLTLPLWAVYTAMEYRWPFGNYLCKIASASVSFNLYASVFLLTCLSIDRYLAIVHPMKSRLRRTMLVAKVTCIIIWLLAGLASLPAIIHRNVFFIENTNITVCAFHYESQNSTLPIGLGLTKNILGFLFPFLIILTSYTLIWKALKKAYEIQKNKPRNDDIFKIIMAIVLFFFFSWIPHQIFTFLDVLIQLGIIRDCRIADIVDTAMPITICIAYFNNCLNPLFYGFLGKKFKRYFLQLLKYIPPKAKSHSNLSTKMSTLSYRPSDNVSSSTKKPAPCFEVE
Summary of the method: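 Competition binding used radiolabelled angiotensin II on stably transfected CHO-K1 membrane fractions in Tris pH 7.4/MgCl2 buffer, optionally containing 0.3 mg/mL fatty acid-free BSA, 1 hr at room temperature. Filtration onto GF/C separated bound tracer, and nonspecific binding was measured with candesartan.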

[2] = biological target: T2, human PPARγ (Homo sapiens, UniProt P37231); assay: PPARγ agonistic activity: luciferase reporter assay in PPARγ:RXRα:4ERPP/CHO-K1 cells; assay type: cell-based; conditions: CHO-K1, test compound 10^−6 M; luciferase activity of control compound X (1 μM) = 100%, non-administration group = 0%
T2 construct: expressed in transfected cells
T2 sequence (P37231 1-477 isoform P37231-2): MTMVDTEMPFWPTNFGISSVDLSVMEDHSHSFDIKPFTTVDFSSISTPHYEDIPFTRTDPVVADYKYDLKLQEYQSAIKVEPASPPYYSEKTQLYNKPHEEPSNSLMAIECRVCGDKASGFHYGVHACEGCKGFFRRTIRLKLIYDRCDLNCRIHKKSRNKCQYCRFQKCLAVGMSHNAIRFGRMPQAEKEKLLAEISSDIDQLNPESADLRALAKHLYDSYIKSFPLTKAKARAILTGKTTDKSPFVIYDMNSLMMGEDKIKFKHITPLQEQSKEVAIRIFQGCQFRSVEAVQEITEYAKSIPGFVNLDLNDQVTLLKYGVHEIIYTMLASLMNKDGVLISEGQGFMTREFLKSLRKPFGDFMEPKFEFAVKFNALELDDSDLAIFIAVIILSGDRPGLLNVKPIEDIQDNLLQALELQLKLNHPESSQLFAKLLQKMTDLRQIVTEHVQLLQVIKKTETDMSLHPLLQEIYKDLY
T2 sequence (P19793 1-462 partner): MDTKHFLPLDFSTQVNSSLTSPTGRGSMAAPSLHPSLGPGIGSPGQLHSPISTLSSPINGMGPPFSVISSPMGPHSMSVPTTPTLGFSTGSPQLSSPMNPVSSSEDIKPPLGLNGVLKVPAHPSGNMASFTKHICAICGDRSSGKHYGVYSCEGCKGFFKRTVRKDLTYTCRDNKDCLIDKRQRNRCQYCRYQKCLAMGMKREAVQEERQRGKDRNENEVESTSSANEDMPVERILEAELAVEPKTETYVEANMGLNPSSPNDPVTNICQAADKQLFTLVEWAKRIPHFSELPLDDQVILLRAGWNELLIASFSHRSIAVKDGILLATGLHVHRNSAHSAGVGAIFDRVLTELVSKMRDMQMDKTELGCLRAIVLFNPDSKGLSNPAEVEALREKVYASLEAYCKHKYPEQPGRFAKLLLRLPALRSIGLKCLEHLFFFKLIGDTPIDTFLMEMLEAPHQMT
Summary of the method: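 Activity is expressed relative to untreated cells (0%) and 1 μM reference compound X (100%), from luciferase luminescence. Reporter line: PPARγ:RXRα:4ERPP/CHO-K1, exposed to compound for one day at 37 °C in F12 medium containing 0.1% fatty-acid-free BSA.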

Row | Structure (SMILES) | IC50 [1] [nM] | activation at 1 µM [2] [%]
1 | CCCc1c(Cc2ccc(-c3ccccc3-c3noc(=O)[nH]3)cc2)c(=O)n(C2CCC3(CC2)OC(C)(C)C(C)(C)O3)c2ncnn12 [Example 180, 6-{[2′-(5-oxo-4,5-dihydro-1,2,4-oxadiazol-3-yl)biphenyl-4-yl]methyl}-7-propyl-4-(2,2,3,3-tetramethyl-1,4-dioxaspiro[4.5]dec-8-yl)[1,2,4]triazolo[1,5-a]pyrimidin-5(4H)-one] | 3.5 | 31
2 | CCCc1c(Cc2ccc(-c3ccccc3-c3nnn[nH]3)cc2)c(=O)n(C2CCC3(CC2)OC(C)(C)C(C)(C)O3)c2ncnn12 [Example 181, 7-propyl-4-(2,2,3,3-tetramethyl-1,4-dioxaspiro[4.5]dec-8-yl)-6-{[2′-(1H-tetrazol-5-yl)biphenyl-4-yl]methyl}[1,2,4]triazolo[1,5-a]pyrimidin-5(4H)-one] | 3.2 | 18
3 | CCCc1c(Cc2ccc(-c3ccccc3-c3noc(=O)[nH]3)cc2)c(=O)n([C@H]2CC[C@](C)(OCCO)CC2)c2ncnn12 [Example 183, 4-[trans-4-(2-hydroxyethoxy)-4-methylcyclohexyl]-6-{[2′-(5-oxo-4,5-dihydro-1,2,4-oxadiazol-3-yl)biphenyl-4-yl]methyl}-7-propyl[1,2,4]triazolo[1,5-a]pyrimidin-5(4H)-one] | 2.5 | 30
4 | CCCc1c(Cc2ccc(-c3ccccc3-c3noc(=O)[nH]3)cc2)c(=O)n([C@H]2CC[C@H](c3cnco3)CC2)c2ncnn12 [Example 184, 4-[trans-4-(1,3-oxazol-5-yl)cyclohexyl]-6-{[2′-(5-oxo-4,5-dihydro-1,2,4-oxadiazol-3-yl)biphenyl-4-yl]methyl}-7-propyl[1,2,4]triazolo[1,5-a]pyrimidin-5(4H)-one] | 2.5 | 41
5 | CCCc1c(Cc2ccc(-c3ccccc3-c3nnn[nH]3)cc2)c(=O)n([C@H]2CC[C@H](c3cnco3)CC2)c2ncnn12 [Example 185, 4-[trans-4-(1,3-oxazol-5-yl)cyclohexyl]-7-propyl-6-{[2′-(1H-tetrazol-5-yl)biphenyl-4-yl]methyl}[1,2,4]triazolo[1,5-a]pyrimidin-5(4H)-one] | 2.3 | 22
6 | CCCc1c(Cc2ccc(-c3ccccc3-c3noc(=O)[nH]3)cc2)c(=O)n([C@H]2CC[C@H](OCCCO)CC2)c2ncnn12 [Example 186, 4-[trans-4-(3-hydroxypropoxy)cyclohexyl]-6-{[2′-(5-oxo-4,5-dihydro-1,2,4-oxadiazol-3-yl)biphenyl-4-yl]methyl}-7-propyl[1,2,4]triazolo[1,5-a]pyrimidin-5(4H)-one] | 2.1 | 24
7 | CCCc1c(Cc2ccc(-c3ccccc3-c3noc(=O)[nH]3)cc2)c(=O)n(C2CCC(=NOC)CC2)c2ncnn12 (stereo not drawn) [Example 188, 4-[4-(methoxyimino)cyclohexyl]-6-{[2′-(5-oxo-4,5-dihydro-1,2,4-oxadiazol-3-yl)biphenyl-4-yl]methyl}-7-propyl[1,2,4]triazolo[1,5-a]pyrimidin-5(4H)-one] | 1.9 | 25
8 | CCCc1c(Cc2ccc(-c3ccccc3-c3noc(=O)[nH]3)cc2)c(=O)n([C@H]2CC[C@](C)(CO)CC2)c2ncnn12 [Example 189, 4-[trans-4-(hydroxymethyl)-4-methylcyclohexyl]-6-{[2′-(5-oxo-4,5-dihydro-1,2,4-oxadiazol-3-yl)biphenyl-4-yl]methyl}-7-propyl[1,2,4]triazolo[1,5-a]pyrimidin-5(4H)-one] | 3.1 | 35
9 | CCCc1c(Cc2ccc(-c3ccccc3-c3noc(=O)[nH]3)cc2)c(=O)n(C2CCC(=CCO)CC2)c2ncnn12 (stereo not drawn) [Example 191, 4-[4-(2-hydroxyethylidene)cyclohexyl]-6-{[2′-(5-oxo-4,5-dihydro-1,2,4-oxadiazol-3-yl)biphenyl-4-yl]methyl}-7-propyl[1,2,4]triazolo[1,5-a]pyrimidin-5(4H)-one] | 1.6 | 34
